Publication PMC5308383 (2016)
Values belong to the molecule of their own block, whether it stands above or below them.

Columns and labels:
[1] = system: CBSA-5335 (fluorophore/quencher-modified) (DNA, aptamer, C3 spacer abasic at 10 of strand 2) CTCCTTCAACGAAGTGGGTCTCCTTCAACGAAGTGGGTCTC/GAGACAAGGNGACAAGGAGT; assay: fluorophore/quencher assembly assay; details: 100 μM MgCl2
[2] = system: CBSA-5335 (fluorophore/quencher-modified) (DNA, aptamer, C3 spacer abasic at 10 of strand 2) CTCCTTCAACGAAGTGGGTCTCCTTCAACGAAGTGGGTCTC/GAGACAAGGNGACAAGGAGT; assay: fluorophore/quencher assembly titration, Hill fit; details: 100 μM MgCl2; 10 mM Tris-HCl, pH 7.4, room temperature; 1 μM each strand; nH 1.5; apparent; b21 prints 33 μM
[3] = system: PSA (DNA, aptamer, C3 spacer abasic at 3 of strand 2) CTCCTTCAACGAAGTGGGTTCC/GGNACAAGGAG; assay: ITC, single-site fit; details: 100 μM MgCl2; 10 mM Tris-HCl, pH 7.4, 20 °C
[4] = system: CBSA-5325 (DNA, aptamer, C3 spacer abasic at 10 of strand 2) CTCCTTCAACGAAGTGGGTTCCTTCAACGAAGTGGGTCTC/GAGACAAGGNACAAGGAG; assay: ATMND quenching assembly assay; details: 100 μM MgCl2; 10 mM Tris-HCl, pH 7.4; 1 μM each strand; 200 nM ATMND; 250 μM cocaine, 72% quenching
[5] = system: CBSA-5435 (DNA, aptamer, C3 spacer abasic at 11 of strand 2) CTCCTTCAACGAAGTGGGTCTTCCTTCAACGAAGTGGGTCTC/GAGACAAGGANGACAAGGAG; assay: ATMND quenching assembly assay; details: 100 μM MgCl2
[6] = system: 38-GC-20A (DNA, aptamer) GGGAGACAAGGAAAATCCTACAACGAAGTGGGTCTCCC; assay: ITC; details: 20 μM aptamer, 500 μM cocaine titrant
[7] = system: CBSA-5445 (DNA, aptamer, C3 spacer abasic at 11 of strand 2) CTCCTTCAACGAAGTGGGTTCTTCCTTCAACGAAGTGGGTCTC/GAGACAAGGANGAACAAGGAG; assay: ATMND quenching assembly assay; details: 100 μM MgCl2
[8] = system: CBSA-5325 (fluorophore/quencher-modified) (DNA, aptamer, C3 spacer abasic at 10 of strand 2) CTCCTTCAACGAAGTGGGTTCCTTCAACGAAGTGGGTCTC/GAGACAAGGNACAAGGAGT; assay: fluorophore/quencher assembly titration, Hill fit; details: 100 μM MgCl2; 10 mM Tris-HCl, pH 7.4, room temperature; 1 μM each strand; nH 1.1; apparent
[9] = system: 38-GC-22G (DNA, aptamer) GGGAGACAAGGAAAATCCTTCGACGAAGTGGGTCTCCC; assay: ITC; details: 20 μM aptamer, 500 μM cocaine titrant
[10] = system: 38-GC-21T (DNA, aptamer) GGGAGACAAGGAAAATCCTTTAACGAAGTGGGTCTCCC; assay: ITC; details: 20 μM aptamer, 500 μM cocaine titrant
[11] = system: CBSA-5335-GT (fluorophore/quencher-modified) (DNA, aptamer, C3 spacer abasic at 10 of strand 2) CTCCTTCAATGAAGTGGGTCTCCTTCAACGAAGTGGGTCTC/GAGACAAGGNGACAAGGAGT; assay: fluorophore/quencher assembly titration, Hill fit; details: 100 μM MgCl2; 10 mM Tris-HCl, pH 7.4, room temperature; 1 μM each strand; nH 1.5; apparent
[12] = system: LSA (DNA, aptamer, C3 spacer abasic at 10 of strand 2) CTCCTTCAACGAAGTGGGTTCCTTGTCTC/GAGACAAGGNACAAGGAG; assay: ATMND quenching assembly assay; details: 100 μM MgCl2; 10 mM Tris-HCl, pH 7.4; 1 μM each strand; 250 μM cocaine, additional 10% change; mostly pre-assembled
[13] = system: 38-GC (DNA, aptamer) GGGAGACAAGGAAAATCCTTCAACGAAGTGGGTCTCCC; assay: ITC; details: 20 μM aptamer, 500 μM cocaine titrant
[14] = system: 38-GC-20C (DNA, aptamer) GGGAGACAAGGAAAATCCTCCAACGAAGTGGGTCTCCC; assay: ITC; details: 20 μM aptamer, 500 μM cocaine titrant
[15] = system: CBSA-M2 (DNA, aptamer, C3 spacer abasic at 10 of strand 2) CTCCTTCGACGAAGTGGGTTCCTTCAACGAAGTGGGTCTC/GAGACAAGGNACAAGGAG; assay: ATMND quenching assembly assay; details: 100 μM MgCl2; 10 mM Tris-HCl, pH 7.4; 1 μM each strand; 200 nM ATMND; cocaine tested at 250 μM
[16] = system: CBSA-M1 (DNA, aptamer, C3 spacer abasic at 10 of strand 2) CTCCTTCAACGAAGTGGGTTCCTTCGACGAAGTGGGTCTC/GAGACAAGGNACAAGGAG; assay: ATMND quenching assembly assay; details: 100 μM MgCl2; 10 mM Tris-HCl, pH 7.4; 1 μM each strand; 200 nM ATMND; cocaine tested at 250 μM
[17] = system: 38-GC-22T (DNA, aptamer) GGGAGACAAGGAAAATCCTTCTACGAAGTGGGTCTCCC; assay: ITC; details: 20 μM aptamer, 500 μM cocaine titrant
[18] = system: LSA (DNA, aptamer, C3 spacer abasic at 10 of strand 2) CTCCTTCAACGAAGTGGGTTCCTTGTCTC/GAGACAAGGNACAAGGAG; assay: fluorescence quenching; details: 100 μM MgCl2; 10 mM Tris-HCl, pH 7.4; 1 μM each strand; 200 nM ATMND; no cocaine; 75% quenching
[19] = system: CBSA-5325 (DNA, aptamer, C3 spacer abasic at 10 of strand 2) CTCCTTCAACGAAGTGGGTTCCTTCAACGAAGTGGGTCTC/GAGACAAGGNACAAGGAG; assay: fluorescence quenching titration, Scatchard; details: 100 μM MgCl2; 10 mM Tris-HCl, pH 7.4; 200 nM ATMND; 1 mM cocaine present (cocaine-assembled aptamer)

- binding ([1]; 10% saliva, room temperature, 19% cross-reactivity at 50 μM, 3% at 5 μM): weak
Structure (SMILES): CCOC(=O)[C@H]1[C@@H](OC(=O)c2ccccc2)C[C@@H]2CC[C@H]1N2C

- binding [1]: no
Structure (SMILES): CN1[C@H]2CC[C@@H]1[C@@H](C(=O)O)[C@@H](OC(=O)c1ccccc1)C2

- binding [1]: no
Structure (SMILES): COC(=O)C1=CC[C@@H]2CC[C@H]1N2C

The remaining lines, values behind:

Structure (SMILES): CN1CCC[C@H]1c1cccnc1
- binding ([1]; 10% saliva, 10 mM Tris-HCl, pH 7.4, room temperature, tested at 50 μM): no

Structure (SMILES): COC(=O)[C@H]1[C@@H](OC(=O)c2ccccc2)C[C@@H]2CC[C@H]1N2C
- K 1/2 [2]: 36 µM
- KD [3]: 2000 µM
- binding [4]: yes
- binding [5]: yes
- KD [6]: 169 µM
- binding [7]: yes
- K 1/2 [8]: 106 µM
- binding [9]: no
- KD [10]: 49.3 µM
- K 1/2 [11]: 125 µM
- binding [12]: weak
- KD [13]: 2.60 µM
- KD [14]: 714 µM
- binding [15]: no
- binding [16]: no
- KD [17]: 169 µM

Structure (SMILES): Cc1nc2nc(N)ccc2c(C)c1C
- binding [18]: yes
- KD [19]: 0.365 µM
